Data from patent US20260258025A1, “INHIBITORS OF TDP-43 AND TAU AGGREGATION” (Aquinnah Pharmaceuticals, inc., priority 2023, published 2026).

Tested on: TDP-43 aggregation
Assay: TDP-43 aggregation assay in SY5Y TDP-43WT cells (high content imaging)
Format: cell-based
Settings: Homo sapiens, tetracycline induction 24 hrs, 1 hour compound pre-treatment, sodium arsenite 23 hrs, 8-point dose curve, percentage of cells with TDP-43 aggregates, read-out: IC50, Inhibition of TDP-43 Aggregation
Method: Exemplary compounds disclosed herein were evaluated for efficacy in inhibiting TDP-43 inclusions cellular imaging-based assays.
The cellular model was in human neuroblastoma SH SYSY cells (ATCC, cat #: CRL-2266). The parent cell line was first engineered to stably express a tetracycline repressor protein (designated as TREx-SY5Y cells, customer cell line development by ThermoFisher). Wild-type human TDP-43 with a C-terminus eGFP tag was synthesized and cloned into pcDNA5/TO expression vector (ThermoFisher). The plasmid was transfected into TREx-SY5Y cells using Lipofectamine 2000 and hygromycin resistant colonies were selected. Expression of TDP-43WT::eGFP was examined under fluorescent microscopy and Western blot upon tetracycline induction. The clone that was used for TDP-43 aggregation assay is referred to as SY5Y TDP-43WT cells hereafter.
Compound inhibition of TDP-43 aggregation was tested in an 8-point dose curve in 96-well format. Briefly, TDP-43WT::eGFP expression was induced with […] for 24 hrs (SY5Y TDP-43WT cells). The cells were then pre-treated for 1 hour with exemplary compounds before adding sodium arsenite to a final concentration of […] and incubated for another 23 hrs. At the end of the treatment the cell monolayers were washed in PBS and fixed in 4% paraformaldehyde (PFA), diluted from 16% stock (Electron Microscopy Sciences cat: #15710-S). The inhibitory effect on TDP-43 aggregation was measured using CellInsight CX7 high content imager (ThermoFisher). The percentage of cells with TDP-43 aggregates was calculated based on the total number of cells identified by DAPI staining. An 8-point dose response curve was generated, and the IC50 for each compound tested was determined (Table 3).
In Table 3 below, A indicates an IC50 (nM)<500 nM, B indicates an IC50 (nM) 500 nM to <1000 nM, C indicates an IC50 (nM) 1000 nM to <2000 nM, D indicates an IC50 (nM) 2000 nM to <6000 nM, and E indicates an IC50 (nM) 6000 nM to ≤10000 nM.

Compound	IC50
Cc1cc(-c2ccc(N3CCN(C4COC4)CC3)cc2)sc1C(=O)N1CC[C@H](N)C1 [Compound 154, (S)-(3-aminopyrrolidin-1-yl)(3-methyl-5-(4-(4-(oxetan-3-yl)piperazin-1-yl)phenyl)thiophen-2-yl)methanone]	500 to 1000 nM
CCc1cc(-c2cc(C)c(C(=O)N3CC[C@H](N)C3)s2)ccc1C1CCOCC1 [Compound 157, (S)-(3-aminopyrrolidin-1-yl)(5-(3-ethyl-4-(tetrahydro-2H-pyran-4-yl)phenyl)-3-methylthiophen-2-yl)methanone]	6000 to 10000 nM
Cc1cc(-c2ccc(C3CCN(C4CCNC4)CC3)cc2)sc1C(=O)N1CC[C@H](N)C1 (stereo partly drawn) [Compound 171, ((S)-3-aminopyrrolidin-1-yl)(3-methyl-5-(4-(1-(pyrrolidin-3-yl)piperidin-4-yl)phenyl)thiophen-2-yl)methanone]	500 to 1000 nM
Cc1cc(-c2ccc(C3CCN(C4CCNCC4)CC3)cc2)sc1C(=O)N1CC[C@H](N)C1 [Compound 177, (S)-(5-(4-([1,4′-bipiperidin]-4-yl)phenyl)-3-methylthiophen-2-yl)(3-aminopyrrolidin-1-yl)methanone]	500 to 1000 nM
Cc1cc(-c2ccc3c(c2)CCCC3N(C)C)sc1C(=O)N1CC[C@H](N)C1 (stereo partly drawn) [Compound 186, ((S)-3-aminopyrrolidin-1-yl)(5-(5-(dimethylamino)-5,6,7,8-tetrahydronaphthalen-2-yl)-3-methylthiophen-2-yl)methanone]	2000 to 6000 nM
Cc1cc(-c2ccc3c(c2)CCC3N(C)C)sc1C(=O)N1CC[C@H](N)C1 (stereo partly drawn) [Compound 188, ((S)-3-aminopyrrolidin-1-yl)(5-(1-(dimethylamino)-2,3-dihydro-1H-inden-5-yl)-3-methylthiophen-2-yl)methanone]	< 500 nM
Cc1cc(-c2ccc3c(c2)CN(C)CC3)sc1C(=O)N1CC[C@H](N)C1 [Compound 189]	< 500 nM
Cc1cc(-c2ccc(C(C)(C)N(C)C)cc2)sc1C(=O)N1CC[C@H](N)C1 [Compound 190, (S)-(3-aminopyrrolidin-1-yl)(5-(4-(2-(dimethylamino)propan-2-yl)phenyl)-3-methylthiophen-2-yl)methanone]	< 500 nM
Cc1cc(-c2ccc3c(c2)CCN(C)C3)sc1C(=O)N1CC[C@H](N)C1 [Compound 191, (S)-(3-aminopyrrolidin-1-yl)(3-methyl-5-(2-methyl-1,2,3,4-tetrahydroisoquinolin-6-yl)thiophen-2-yl)methanone]	< 500 nM
Cc1cc(-c2ccc(C3(N(C)C)CCCCC3)cc2)sc1C(=O)N1CC[C@H](N)C1 [Compound 192, (S)-(3-aminopyrrolidin-1-yl){5-[4-(1-dimethylaminocyclohexyl)phenyl]-3-methylthiophen-2-yl}methanone]	2000 to 6000 nM
Cc1cc(-c2ccc3c(c2)OCCC3)sc1C(=O)N1CC[C@H](N)C1 [Compound 194, (S)-(3-aminopyrrolidin-1-yl)(5-(chroman-7-yl)-3-methylthiophen-2-yl)methanone]	500 to 1000 nM
Cc1cc(-c2ccc3c(c2)COCC3)sc1C(=O)N1CC[C@H](N)C1 [Compound 195, (S)-(3-aminopyrrolidin-1-yl)[5-(isochroman-7-yl)-3-methylthiophen-2-yl]methanone]	1000 to 2000 nM
Cc1cc(-c2ccc3c(c2)N(C)CCC3)sc1C(=O)N1CC[C@H](N)C1 [Compound 196, (S)-(3-aminopyrrolidin-1-yl)(3-methyl-5-(1-methyl-1,2,3,4-tetrahydroquinolin-7-yl)thiophen-2-yl)methanone]	6000 to 10000 nM
Cc1cc(-c2ccc3c(c2)NCCC3)sc1C(=O)N1CC[C@H](N)C1 [Compound 197, (S)-(3-aminopyrrolidin-1-yl)(3-methyl-5-(1,2,3,4-tetrahydroquinolin-7-yl)thiophen-2-yl)methanone]	1000 to 2000 nM
CCc1ccc(-c2cc(C)c(C(=O)N3CC[C@H](N)C3)s2)cc1C [Compound 220]	6000 to 10000 nM
Cc1cnc(-c2cc(C)c(C(=O)N3CC[C@H](N)C3)s2)cn1 [Compound 223]	1000 to 2000 nM
Cc1cc(-c2ccc3c(c2)CCCO3)sc1C(=O)N1CC[C@H](N)C1 [Compound 229]	500 to 1000 nM
CCc1ccc(-c2sc(C(=O)N3CC[C@H](N)C3)c(C)c2C)cc1 [Compound 233]	6000 to 10000 nM
Cc1cc(-c2ccc(-c3ccccc3)cc2)sc1C(=O)N1CC[C@H](N)C1 [Compound 234]	2000 to 6000 nM

The next lines start with the values.

IC50	Compound
< 500 nM	Cc1cc(-c2ccc(C3CCN(C4CSC4)CC3)cc2)sc1C(=O)N1CC[C@H](N)C1 [Compound 172, (S)-(3-aminopyrrolidin-1-yl){3-methyl-5-[4-(1-thietan-3-ylpiperidin-4-yl)phenyl]thiophen-2-yl} methanone]
< 500 nM	Cc1cc(-c2ccc(C3CCN(C4CN(C)C4)CC3)cc2)sc1C(=O)N1CC[C@H](N)C1 [Compound 173, (S)-(3-aminopyrrolidin-1-yl)(3-methyl-5-(4-(1-(1-methylazetidin-3-yl)piperidin-4-yl)phenyl)thiophen-2-yl)methanone]
1000 to 2000 nM	Cc1cc(-c2ccc(C3CCN(C4CNC4)CC3)cc2)sc1C(=O)N1CC[C@H](N)C1 [Compound 174, (S)-(3-aminopyrrolidin-1-yl)(5-(4-(1-(azetidin-3-yl)piperidin-4-yl)phenyl)-3-methylthiophen-2-yl)methanone]
< 500 nM	Cc1cc(-c2ccc(C3CCN(C4CC4)CC3)cc2)sc1C(=O)N1CC[C@H](N)C1 [Compound 175, (S)-(3-aminopyrrolidin-1-yl)(5-(4-(1-cyclopropylpiperidin-4-yl)phenyl)-3-methylthiophen-2-yl)methanone]
2000 to 6000 nM	Cc1cc(-c2ccc(N3CCC(C)CC3)cc2)sc1C(=O)N1CC[C@H](N)C1 [Compound 184, (S)-(3-aminopyrrolidin-1-yl)(3-methyl-5-(4-(4-methylpiperidin-1-yl)phenyl)thiophen-2-yl)methanone]
< 500 nM	Cc1cc(-c2ccc(N3CCN(C)CC3)cc2)sc1C(=O)N1CC[C@H](N)C1 [Compound 185, (S)-(3-aminopyrrolidin-1-yl)(3-methyl-5-(4-(4-methylpiperazin-1-yl)phenyl)thiophen-2-yl)methanone]
500 to 1000 nM	Cc1cc(-c2ccc(C3(N(C)C)CCC3)cc2)sc1C(=O)N1CC[C@H](N)C1 [Compound 187, (S)-(3-aminopyrrolidin-1-yl)(5-(4-(1-(dimethylamino)cyclobutyl)phenyl)-3-methylthiophen-2-yl)methanone]
500 to 1000 nM	Cc1cc(-c2ccc(C3(N(C)C)CCCC3)cc2)sc1C(=O)N1CC[C@H](N)C1 [Compound 193, (S)-(3-aminopyrrolidin-1-yl){5[4-(1-dimethylaminocyclopentyl)phenyl]-3-methylthiophen-2-yl}methanone]
1000 to 2000 nM	Cc1cc(-c2ccc(COC3CCOCC3)cc2)sc1C(=O)N1CC[C@H](N)C1 [Compound 202, (S)-(3-aminopyrrolidin-1-yl)(3-methyl-5-(4-((tetrahydro-2H-pyran-4-yloxy)methyl)phenyl)thiophen-2-yl)methanone]
2000 to 6000 nM	Cc1cc(-c2ccc(COC3CCCCC3)cc2)sc1C(=O)N1CC[C@H](N)C1 [Compound 203, (S)-(3-aminopyrrolidin-1-yl){5-[4-(cyclohexyloxymethyl)phenyl]-3-methylthiophen-2-yl}methanone]
6000 to 10000 nM	Cc1cc(-c2ccc(COc3ccccc3)cc2)sc1C(=O)N1CC[C@H](N)C1 [Compound 204, (S)-(3-aminopyrrolidin-1-yl){3-methyl-5-[4-(phenoxymethyl)phenyl]thiophen-2-yl}methanone]
500 to 1000 nM	Cc1cc(-c2ccc(C3CCNCC3)cc2)sc1C(=O)N1CC[C@H](N)C1 [Compound 205, (S)-(3-aminopyrrolidin-1-yl){3-methyl-5-[4-(piperidin-4-yl)phenyl]thiophen-2-yl}methanone]
< 500 nM	CNCc1ccc(-c2cc(C)c(C(=O)N3CC[C@H](N)C3)s2)cc1 [Compound 218]
< 500 nM	Cc1cc(-c2ccc(CN)cc2)sc1C(=O)N1CC[C@H](N)C1 [Compound 219]
6000 to 10000 nM	Cc1cc(-c2ccc(C3=CCCCC3)cc2)sc1C(=O)N1CC[C@H](N)C1 [Compound 224]
< 500 nM	Cc1ccc(-c2cc(C)c(C(=O)N3CC[C@H](N)C3)s2)cc1 [Compound 225]
2000 to 6000 nM	CCCc1ccc(-c2cc(C)c(C(=O)N3CC[C@H](N)C3)s2)cc1 [Compound 227]
500 to 1000 nM	CCc1ccc(-c2cc(C)c(C(=O)N3CC[C@H](N)C3)s2)cc1 [Compound 228]
2000 to 6000 nM	Cc1cc(-c2ccc(C(C)C)cc2)sc1C(=O)N1CC[C@H](N)C1 [Compound 230]
500 to 1000 nM	Cc1cc(-c2ccc(C3CCC3)cc2)sc1C(=O)N1CC[C@H](N)C1 [Compound 232]
< 500 nM	Cc1cc(-c2ccc(C3COC3)cc2)sc1C(=O)N1CC[C@H](N)C1 [Compound 235]
